Literature values, collected in patent US11173140B2, “Dosing regimens of PKC activators” (COGNITIVE RESEARCH ENTERPRISES, INC., priority 2015, dated 2021).
Where two headings read alike, the source gives them in different places.

Assays:
PKC [1] = details: cited from earlier work
PKC [2] = details: cited from earlier work; remark: listed apart in the source
PKC [3] = details: competition with [3H] phorbol dibutyrate; read-out: Ki, binding to PKC; cited from earlier work
NCI 60 cell line screen = details: NCI 60 cell lines; cited from earlier work
[4] = A-ring bryologs, read-out: affinity for PKC

For `CCCCCCCC(=O)O[C@H]1/C(=C/C(=O)OC)C[C@H]2C[C@H](CO)OC(=O)C[C@H](O)C[C@@H]3CCC[C@H](C[C@@H]4CCO[C@H](/C=C/C(C)(C)[C@]1(O)O2)O4)O3` [Analog 1], the “affinity for PKC (in words)” value (PKC [1]) is listed as “highest affinity” and the Ki (PKC [1]; read-out: PKC Affin) is listed as 0.25 nM.
For `CCC1CC1CC1CC1CC1CC1CC1CC1CC1CC1CC1CC1CCC(=O)OC` (stereo not shown) [DHA-CP6, cyclopropanated docosahexaenoic acid methyl ester], the effective concentration (PKC [2]) is listed as 10 nM.
For `CC1=C[C@]23C(=O)[C@@H](C=C(COC(=O)c4ccccc4)[C@@H](O)[C@]2(O)[C@H]1OC(=O)c1ccccc1)[C@H]1[C@@H](C[C@H]3C)C1(C)C` [Ingenol 3,20-dibenzoate], the Ki (PKC [3]) is given as 240 nM.
For `CC1=CC[C@H](C)C(C)(C)[C@@H]1/C=C/C(C)=C/CC[C@@]1(CO)[C@H](CCCO)/C(=C(/C)C=O)CC[C@]1(C)O` [Iripallidal], the “GI50 (concentration required to inhibit growth by 50%)” value (NCI 60 cell line screen) is listed as “micromolar to nanomolar range”.
In the case of `CCCCCCCC(=O)OC1C(=CC(=O)OC)CC2CC(CO)OC(=O)CC(O)CCOC(C(C)(C)C)CC3CCOC(C=CC(C)(C)C1(O)O2)O3` (stereo not shown) [bryolog 3], the Ki (PKC [1]; [4]) is listed as 6.5 nM.
For `CCCCCCCC(=O)OC1C(=CC(=O)OC)CC2CC(CO)OC(=O)CC(O)CCOC(c3ccccc3)CC3CCOC(C=CC(C)(C)C1(O)O2)O3` (stereo not shown) [bryolog 4], the Ki (PKC [1]; [4]) is listed as 2.3 nM.
